# Key:
# Format in all cases: in vivo
# [1] = tested on: intra-tibial MRMT-1 rat mammary gland carcinoma cells (bone cancer pain); experiment: Rat model of bone cancer pain: weight-bearing difference (hind limb sparing); details: for weight-bearing difference between contralateral and ipsilateral paw: measured 1 hour after drug administration
# Procedure: Adult female rats are given intra-tibial injections of MRMT-1 rat mammary gland carcinoma cells (3 μl, 10^7 cells/ml). These animals gradually develop mechanical hyperalgesia, mechanical allodynia (skin sensitivity to non-noxious stimuli) and hind limb sparing, beginning on day 12-14 following cell injection. […] Intra-tibial inoculation of MRMT-1 cells induces a time-dependent hypersensitivity in the ipsilateral limb, measured as a shift in body weight to the contralateral limb. The increase in weight-bearing difference between contralateral and ipsilateral paw (weight shift from the affected to the unaffected limb) is evident by day 14 post-inoculation and continues to increase until day 20. […] This effect is significant for COX189 on days 10, 14, 17 and 20 as well as for valdecoxib (30 mg/kg, p.o.) on day 20. […] Lower doses are not studied. […] The treatments induces a progressive and long-lasting reduction in hypersensitivity, since the weight-bearing difference is also attenuated when measured 1 h before the first daily treatment. This preventative effect reaches significant levels for all three treatments on days 14 and 17. There is no significant difference between the effects measured before and after COX189 administration on each day for any individual treatment.
# [2] = tested on: intra-tibial MRMT-1 rat mammary gland carcinoma cells (bone cancer pain); experiment: Rat model of bone cancer pain: mechanical allodynia (static and dynamic); details: day 20; for static allodynia (punctuate stimulus), ipsilateral paw: 90 minutes after the last administration
# Procedure: Adult female rats are given intra-tibial injections of MRMT-1 rat mammary gland carcinoma cells (3 μl, 10^7 cells/ml). These animals gradually develop mechanical hyperalgesia, mechanical allodynia (skin sensitivity to non-noxious stimuli) and hind limb sparing, beginning on day 12-14 following cell injection.
# [3] = tested on: intra-tibial MRMT-1 rat mammary gland carcinoma cells (bone cancer); experiment: Rat model of bone cancer pain: radiologically observed structural changes and bone mineral density
# Procedure: Adult female rats are given intra-tibial injections of MRMT-1 rat mammary gland carcinoma cells (3 μl, 10^7 cells/ml).
# [4] = 30 mg/kg repeated administration, day 20
Compound,"weight-bearing difference between contralateral and ipsilateral paw ([1]; 10 mg/kg p.o. repeated from day 10 post-inoculation, days 14, 17 and 20)","weight-bearing difference between contralateral and ipsilateral paw ([1]; 30 mg/kg p.o. repeated from day 10 post-inoculation, days 14, 17 and 20)",dose-dependence of the effect on weight-bearing difference ([1]; 10 versus 30 mg/kg p.o.),"static allodynia (punctuate stimulus), ipsilateral paw ([2]; 10 mg/kg p.o. repeated)","dynamic allodynia (light stroking of the skin), ipsilateral paw ([2]; 30 mg/kg p.o. repeated)","static allodynia (punctuate stimulus), ipsilateral paw ([2]; 30 mg/kg p.o. repeated)","radiologically observed structural changes ([3]; 10 mg/kg repeated administration, day 20)","loss of bone mineral density compared to vehicle treated animals [3, 4]","radiologically observed structural changes [3, 4]","radiologically observed structural changes in an animal model of bone cancer pain ([3]; summary statement, no dose given)","weight-bearing difference between contralateral and ipsilateral paw ([1]; 30 mg/kg p.o. repeated, day 20)"
"Cc1ccc(Nc2c(F)cccc2Cl)c(CC(=O)O)c1 [COX189, 5-methyl-2-(2′-chloro-6′-fluoroanilino)-phenylacetic acid]",significantly attenuates,significantly attenuates,not dose-dependent,significantly reverses,reaches statistical significance,significantly reverses,significantly inhibits,significantly inhibit,significantly inhibits,inhibit,–
"Cc1onc(-c2ccccc2)c1-c1ccc(S(N)(=O)=O)cc1 [valdecoxib, reference compound]",–,–,–,–,–,significantly reverses,–,–,–,–,significant

# Reference: patent US20060004104A1, “Methods and compositions for treatment of cancer pain” (priority 2002, published 2006)
